Measured values published in US7259011B2, “Pluripotent adult stem cells” (priority 2004, dated 2007).
Like-named read-outs stand apart in the source and are kept apart here.

Test system: PPASCs
Text: PPASCs were thawed or trypsinized from expansion cultures and plated at 20,000 cells per 16 mm well in 24-well gelatin-coated culture plates (Corning Glass Works, Corning, N.Y.). All wells contained EMEM and 10% pre-selected horse serum. The control group remained in this medium, while the experimental wells contained media supplemented with dexamethasone (Sigma). Dexamethasone used were logarithmic concentrations from 10^−10 to 10^−6 M. Cultures were fixed and assayed for phenotypes at one-week intervals up to five weeks.
The immunohistochemical protocol typically used was adopted from Romero-Ramos et al. (2002)^3:
8) 0.25 ml of the primary antibody in PBS was added for 60 minutes at 37° C. • Antibodies used: Table 2
10) A second blocking step of 1% Goat Serum in PBS with 0.5% Tween was performed for 20 minutes preceding the addition of the secondary antibody. • 11) The cells received 0.25 ml of horse-radish peroxidase conjugated IgG secondary antibody that was diluted with PBS to a concentration of 1:1500 or secondary antibody conjugated with either FITC or TRITC fluorochrome. • 12) After 30 minutes of incubation at 37° C. with the secondary antibody, the wells were rinsed with PBS five times. If the secondary antibody was conjugated to fluorochrome, photographs were taken after this step. • 13) 0.25 ml of True Blue or DAB solution was added and light protected for up to 20 minutes. • 14) Five rinses of dH2O followed. • 15) Photographs were taken on an Olympus Inverted Scope Model IMT light microscope.

C[C@@H]1C[C@H]2[C@@H]3CCC4=CC(=O)C=C[C@]4(C)[C@@]3(F)[C@@H](O)C[C@]2(C)[C@@]1(O)C(=O)CO [dex, dexamethasone]
concentration at which cells containing vesicles (Sudan Black B stained, adipocytes) were observed: 10^−9 to 10^−6 M
concentration at which induction of endothelial cells reproducibly occurred: ≥ 10^−8 M
concentration giving the highest quantity of hepatocytes: 10^−8 M
AFP stained cells (liver; α-fetoprotein) (10^−6 M dex): + (+ = 1–5 cells seen per culture well.)
CIICI stained cells (cartilage; type II collagen) (10^−6 M dex): − (− = no stained cells seen per culture well.)
CNPase stained cells (glial cells) (10^−6 M dex): − (− = no stained cells seen per culture well.)
CT3 stained cells (cardiac muscle; cardiac troponin T) (10^−6 M dex): + (+ = 1–5 cells seen per culture well.)
Desmin stained cells (myogenic precursor cells) (10^−6 M dex): + (+ = 1–5 cells seen per culture well.)
GFAP stained cells (astrocytes) (10^−6 M dex): − (− = no stained cells seen per culture well.)
IA4 stained cells (smooth muscle; α-smooth muscle actin) (10^−6 M dex): + (+ = 1–5 cells seen per culture well.)
IL-1β stained cells (10^−6 M dex): + (+ = 1–5 cells seen per culture well.)
LDL uptake (fluorescent labeled acetylated low density lipoprotein, 20 min) (10^−6 M dex): ++ (++ = 5–10 cells observed per culture well.)
MF-20 stained cells (skeletal muscle; heavy chain of myosin) (10^−6 M dex): − (− = no stained cells seen per culture well.)
MPIII stained cells (bone; osteopontin) (10^−6 M dex): − (− = no stained cells seen per culture well.)
P2B1 stained cells (endothelial cells) (10^−6 M dex): ++ (++ = 5–10 cells observed per culture well.)
P4A4 stained cells (endothelial cells) (10^−6 M dex): + (+ = 1–5 cells seen per culture well.)
Sudan Black B stained cells (fat) (10^−6 M dex): ++ (++ = 5–10 cells observed per culture well.)
Talin stained cells (fibroblasts) (10^−6 M dex): − (− = no stained cells seen per culture well.)
Trop I stained cells (cardiac muscle; cardiac troponin I) (10^−6 M dex): + (+ = 1–5 cells seen per culture well.)
WVIDI stained cells (bone; bone sialoproteins I and II) (10^−6 M dex): − (− = no stained cells seen per culture well.)
AFP stained cells (liver; α-fetoprotein) (10^−7 M dex): ++ (++ = 5–10 cells observed per culture well.)
CIICI stained cells (cartilage; type II collagen) (10^−7 M dex): + (+ = 1–5 cells seen per culture well.)
CNPase stained cells (glial cells) (10^−7 M dex): − (− = no stained cells seen per culture well.)
CT3 stained cells (cardiac muscle; cardiac troponin T) (10^−7 M dex): ++ (++ = 5–10 cells observed per culture well.)
Desmin stained cells (myogenic precursor cells) (10^−7 M dex): + (+ = 1–5 cells seen per culture well.)
GFAP stained cells (astrocytes) (10^−7 M dex): − (− = no stained cells seen per culture well.)
IA4 stained cells (smooth muscle; α-smooth muscle actin) (10^−7 M dex): ++ (++ = 5–10 cells observed per culture well.)
IL-1β stained cells (10^−7 M dex): + (+ = 1–5 cells seen per culture well.)
LDL uptake (fluorescent labeled acetylated low density lipoprotein, 20 min) (10^−7 M dex): ++ (++ = 5–10 cells observed per culture well.)
MF-20 stained cells (skeletal muscle; heavy chain of myosin) (10^−7 M dex): − (− = no stained cells seen per culture well.)
MPIII stained cells (bone; osteopontin) (10^−7 M dex): + (+ = 1–5 cells seen per culture well.)
P2B1 stained cells (endothelial cells) (10^−7 M dex): + (+ = 1–5 cells seen per culture well.)
P4A4 stained cells (endothelial cells) (10^−7 M dex): + (+ = 1–5 cells seen per culture well.)
Sudan Black B stained cells (fat) (10^−7 M dex): ++ (++ = 5–10 cells observed per culture well.)
Talin stained cells (fibroblasts) (10^−7 M dex): ++ (++ = 5–10 cells observed per culture well.)
Trop I stained cells (cardiac muscle; cardiac troponin I) (10^−7 M dex): + (+ = 1–5 cells seen per culture well.)
WVIDI stained cells (bone; bone sialoproteins I and II) (10^−7 M dex): + (+ = 1–5 cells seen per culture well.)
AFP stained cells (liver; α-fetoprotein) (10^−8 M dex): + (+ = 1–5 cells seen per culture well.)
CIICI stained cells (cartilage; type II collagen) (10^−8 M dex): ++ (++ = 5–10 cells observed per culture well.)
CNPase stained cells (glial cells) (10^−8 M dex): + (+ = 1–5 cells seen per culture well.)
CT3 stained cells (cardiac muscle; cardiac troponin T) (10^−8 M dex): + (+ = 1–5 cells seen per culture well.)
Desmin stained cells (myogenic precursor cells) (10^−8 M dex): + (+ = 1–5 cells seen per culture well.)
GFAP stained cells (astrocytes) (10^−8 M dex): − (− = no stained cells seen per culture well.)
IA4 stained cells (smooth muscle; α-smooth muscle actin) (10^−8 M dex): + (+ = 1–5 cells seen per culture well.)
IL-1β stained cells (10^−8 M dex): + (+ = 1–5 cells seen per culture well.)
LDL uptake (fluorescent labeled acetylated low density lipoprotein, 20 min) (10^−8 M dex): + (+ = 1–5 cells seen per culture well.)
MF-20 stained cells (skeletal muscle; heavy chain of myosin) (10^−8 M dex): + (+ = 1–5 cells seen per culture well.)
MPIII stained cells (bone; osteopontin) (10^−8 M dex): + (+ = 1–5 cells seen per culture well.)
P2B1 stained cells (endothelial cells) (10^−8 M dex): − (− = no stained cells seen per culture well.)
P4A4 stained cells (endothelial cells) (10^−8 M dex): + (+ = 1–5 cells seen per culture well.)
Sudan Black B stained cells (fat) (10^−8 M dex): + (+ = 1–5 cells seen per culture well.)
Talin stained cells (fibroblasts) (10^−8 M dex): ++ (++ = 5–10 cells observed per culture well.)
Trop I stained cells (cardiac muscle; cardiac troponin I) (10^−8 M dex): + (+ = 1–5 cells seen per culture well.)
WVIDI stained cells (bone; bone sialoproteins I and II) (10^−8 M dex): + (+ = 1–5 cells seen per culture well.)
AFP stained cells (liver; α-fetoprotein) (10^−9 M dex): + (+ = 1–5 cells seen per culture well.)
CIICI stained cells (cartilage; type II collagen) (10^−9 M dex): + (+ = 1–5 cells seen per culture well.)
CNPase stained cells (glial cells) (10^−9 M dex): ++ (++ = 5–10 cells observed per culture well.)
CT3 stained cells (cardiac muscle; cardiac troponin T) (10^−9 M dex): − (− = no stained cells seen per culture well.)
Desmin stained cells (myogenic precursor cells) (10^−9 M dex): ++ (++ = 5–10 cells observed per culture well.)
GFAP stained cells (astrocytes) (10^−9 M dex): ++ (++ = 5–10 cells observed per culture well.)
IA4 stained cells (smooth muscle; α-smooth muscle actin) (10^−9 M dex): − (− = no stained cells seen per culture well.)
IL-1β stained cells (10^−9 M dex): − (− = no stained cells seen per culture well.)
LDL uptake (fluorescent labeled acetylated low density lipoprotein, 20 min) (10^−9 M dex): − (− = no stained cells seen per culture well.)
MF-20 stained cells (skeletal muscle; heavy chain of myosin) (10^−9 M dex): + (+ = 1–5 cells seen per culture well.)
MPIII stained cells (bone; osteopontin) (10^−9 M dex): + (+ = 1–5 cells seen per culture well.)
P2B1 stained cells (endothelial cells) (10^−9 M dex): − (− = no stained cells seen per culture well.)
P4A4 stained cells (endothelial cells) (10^−9 M dex): − (− = no stained cells seen per culture well.)
Sudan Black B stained cells (fat) (10^−9 M dex): − (− = no stained cells seen per culture well.)
Talin stained cells (fibroblasts) (10^−9 M dex): + (+ = 1–5 cells seen per culture well.)
Trop I stained cells (cardiac muscle; cardiac troponin I) (10^−9 M dex): − (− = no stained cells seen per culture well.)
WVIDI stained cells (bone; bone sialoproteins I and II) (10^−9 M dex): + (+ = 1–5 cells seen per culture well.)
AFP stained cells (liver; α-fetoprotein) (10^−10 M dex): − (− = no stained cells seen per culture well.)
CIICI stained cells (cartilage; type II collagen) (10^−10 M dex): − (− = no stained cells seen per culture well.)
CNPase stained cells (glial cells) (10^−10 M dex): ++ (++ = 5–10 cells observed per culture well.)
CT3 stained cells (cardiac muscle; cardiac troponin T) (10^−10 M dex): − (− = no stained cells seen per culture well.)
Desmin stained cells (myogenic precursor cells) (10^−10 M dex): + (+ = 1–5 cells seen per culture well.)
GFAP stained cells (astrocytes) (10^−10 M dex): + (+ = 1–5 cells seen per culture well.)
IA4 stained cells (smooth muscle; α-smooth muscle actin) (10^−10 M dex): − (− = no stained cells seen per culture well.)
IL-1β stained cells (10^−10 M dex): − (− = no stained cells seen per culture well.)
LDL uptake (fluorescent labeled acetylated low density lipoprotein, 20 min) (10^−10 M dex): − (− = no stained cells seen per culture well.)
MF-20 stained cells (skeletal muscle; heavy chain of myosin) (10^−10 M dex): + (+ = 1–5 cells seen per culture well.)
MPIII stained cells (bone; osteopontin) (10^−10 M dex): + (+ = 1–5 cells seen per culture well.)
P2B1 stained cells (endothelial cells) (10^−10 M dex): − (− = no stained cells seen per culture well.)
P4A4 stained cells (endothelial cells) (10^−10 M dex): − (− = no stained cells seen per culture well.)
Sudan Black B stained cells (fat) (10^−10 M dex): − (− = no stained cells seen per culture well.)
Talin stained cells (fibroblasts) (10^−10 M dex): − (− = no stained cells seen per culture well.)
Trop I stained cells (cardiac muscle; cardiac troponin I) (10^−10 M dex): − (− = no stained cells seen per culture well.)
WVIDI stained cells (bone; bone sialoproteins I and II) (10^−10 M dex): + (+ = 1–5 cells seen per culture well.)
Von Kossa's stain of multilayered nodules (mineral) (after 3 weeks of treatment): mineralized
Alcian blue pH 1.0 staining (cartilage) (pH 1): sulfated proteoglycans were detected
